# Measured values: US9724358B2, “Minocycline compounds and methods of use thereof” (Paratek Pharmaceuticals, Inc., priority 2008, dated 2017)
# Marks after values point to notes of the source that are not given here.
# Tests used:
# Mixed GPC = assay: Phase 2 CSSSI study, clinical outcome by organism: Mixed GPC; type: in vivo; conditions: ME population
# Description: (§1) A randomized (1:1), controlled, evaluator-blinded Phase 2 study comparing 9-[(2,2-dimethyl-propyl amino)-methyl-minocycline (compound 1) and linezolid (Zyvox™) for the treatment of complicated skin and skin structure infections (CSSSI) was conducted. Patients with CSSSI who required initial intravenous (IV) therapy and met inclusion and exclusion criteria were enrolled at 11 centers in the US and were randomized to receive either compound 1 (100 mg Q24 h IV with 200 mg Q24 h oral step-down) or linezolid (600 mg Q12 h IV with 600 mg Q12 h oral step-down).
# (§2) An infecting pathogen was defined as an isolate derived from the last positive culture taken from the site of infection under study prior to and including day 1.
# MRSA = assay: Phase 2 CSSSI study, clinical outcome by organism: MRSA; type: in vivo, Staphylococcus aureus; conditions: for Clinical outcome Failure (number) / Clinical outcome Success (number): ME population, MRSA; for clinical success rate against MRSA: as determined in the trials of the Exemplification
# Description: as §1, §2
# Mixed GPC/GNR = assay: Phase 2 CSSSI study, clinical outcome by organism: Mixed GPC/GNR; type: in vivo; conditions: ME population
# Description: as §1, §2
# Enterococcus = assay: Phase 2 CSSSI study, clinical outcome by organism: Enterococcus; type: in vivo; conditions: ME population
# Description: as §1, §2
# Viridans Strep = assay: Phase 2 CSSSI study, clinical outcome by organism: Viridans Strep; type: in vivo, Viridans Streptococci; conditions: ME population
# Description: as §1, §2
# B-Strep = assay: Phase 2 CSSSI study, clinical outcome by organism: B-Strep; type: in vivo, B-streptococci; conditions: for Clinical outcome Failure (number) / Clinical outcome Success (number): ME population, B-Strep; for clinical success rate against B. streptococci: as determined in the trials of the Exemplification
# Description: as §1, §2
# [1] = Phase 2 CSSSI study, safety and adverse events by patient; type: in vivo, human
# Description: as §1
# At each of the four structured evaluations, the blinded evaluator assessed the subject, with particular attention to scoring the findings at the primary site of infection and obtaining cultures. Clinical and microbiologic outcomes were determined using these assessments. Primary evaluation criteria was safety and tolerability compared with linezolid. Secondary evaluation criteria was efficacy of compound 1 compared to linezolid, as well as pharmacokinetics of compound 1.
# In addition, the patients in the study were monitored for adverse events (AE). An adverse event is any untoward medical occurrence temporally associated with the use of a medical product in a subject, whether or not the event is considered causally related to the medical product.
# G+ anaerobes = assay: Phase 2 CSSSI study, clinical outcome by organism: G+ anaerobes; type: in vivo, gram-positive anaerobes; conditions: ME population
# Description: as §1, §2
# infecting pathogen = assay: Phase 2 CSSSI study, microbiology outcome; type: in vivo, human; conditions: ME population; for Presumed Persistence (% of subjects) / Presumed Persistence (number of subjects): clinical failure; for Presumed Persistence (% of subjects) / Presumed Persistence (number of subjects) / Presumed Eradication (% of subjects) / Presumed Eradication (number of subjects): no pathogen at TOC; for Persistence (% of subjects) / Persistence (number of subjects) / Presumed Eradication (% of subjects) / Presumed Eradication (number of subjects): clinical success; for Persistence (% of subjects) / Persistence (number of subjects): enrollment pathogen isolated at TOC
# Description: as §2
# A persisting pathogen at the site of infection under study was defined as an isolate that was the same genus and species as an infecting pathogen; and was cultured at the Test-of-Cure evaluation from the site of infection under study.
# A superinfecting pathogen at the site of infection under study is defined as a pathogen meeting all of the following criteria: represented a genus and species not isolated during the Enrollment evaluation, was cultured at any time from the day 3 of treatment to the test of cure evaluation, inclusive; was cultured from a patient who had at least one infecting pathogen; and was cultured from a patient who represents a “clinical failure.”
# Microbiological response to treatment was determined for each infecting pathogen using the following classification: documented eradication, presumed eradication, documented persistence, presumed persistence, or unknown.
# Microbiological response to treatment was determined for each subject using the following classification:
# Microbiologic Success—all infecting pathogens isolated at baseline were eradicated or presumed eradicated at the test-of-cure evaluation and no superinfecting pathogen was isolated from the site of infection under study.
# Microbiological Failure—persistence or presumed persistence of one or more infecting pathogens or isolation of a superinfecting pathogen from the site of infection under study.
# [2] = probably or possibly drug-related by blinded evaluator
smiles,measurement,setting,value
"CN(C)c1cc(CNCC(C)(C)C)c(O)c2c1C[C@H]1C[C@H]3[C@H](N(C)C)C(O)=C(C(N)=O)C(=O)[C@@]3(O)C(O)=C1C2=O [Compound 1, 9-[(2,2-dimethyl-propylamino)-methyl]-minocycline]",Clinical outcome Failure (number),Mixed GPC,2
same,Clinical outcome Success (number),Mixed GPC,16
same,Clinical outcome Failure (number),MRSA,0
same,Clinical outcome Success (number),MRSA,42
same,Clinical outcome Failure (number),MRSA; listed as compound 1,none
same,clinical success rate against MRSA,MRSA,100%
same,Clinical outcome Failure (number),Mixed GPC/GNR,2
same,Clinical outcome Success (number),Mixed GPC/GNR,12
same,Clinical outcome Failure (number),Enterococcus,1
same,Clinical outcome Success (number),Enterococcus,1
same,Clinical outcome Failure (number),Viridans Strep,1
same,Clinical outcome Success (number),Viridans Strep,3
same,Clinical outcome Failure (number),B-Strep,0
same,Clinical outcome Success (number),B-Strep,6
same,clinical success rate against B. streptococci,B-Strep,100%
same,tolerability,[1]; 100 mg Q24 h IV with 200 mg Q24 h oral step-down,well tolerated
same,"Adverse events by patient, Musculoskeletal, Drug Related","[1]; human, in vivo",0
same,"Adverse events by patient, Musculoskeletal, Total","[1]; human, in vivo",8
same,GI events leading to discontinuation of therapy,"[1]; human, in vivo",did not result in discontinuation of therapy
same,severity of GI events,[1]; observed almost entirely during oral therapy,mild
same,"Adverse events by patient, Cardiac, Drug Related",[1]; [2],0
same,"Adverse events by patient, Ear, Drug Related",[1]; [2],0
same,"Adverse events by patient, Eye, Drug Related",[1]; [2],0
same,"Adverse events by patient, GI, Drug Related",[1]; [2],12
same,"Adverse events by patient, General, Drug Related",[1]; [2],5
same,"Adverse events by patient, Heme, Drug Related",[1]; [2],0
same,"Adverse events by patient, Infection, Drug Related",[1]; [2],0
same,"Adverse events by patient, Injury, Drug Related",[1]; [2],0
same,"Adverse events by patient, Investigations, Drug Related",[1]; [2],3
same,"Adverse events by patient, Metabolism, Drug Related",[1]; [2],1
same,"Adverse events by patient, Neurologic, Drug Related",[1]; [2],4
same,"Adverse events by patient, Psych, Drug Related",[1]; [2],2
same,"Adverse events by patient, Renal, Drug Related",[1]; [2],1
same,"Adverse events by patient, Reproductive, Drug Related",[1]; [2],0
same,"Adverse events by patient, Respiratory, Drug Related",[1]; [2],0
same,"Adverse events by patient, Skin, Drug Related",[1]; [2],7
same,"Adverse events by patient, Vascular, Drug Related",[1]; [2],0
same,"Adverse events by patient, Cardiac, Total",[1]; safety population,4
same,"Adverse events by patient, Ear, Total",[1]; safety population,0
same,"Adverse events by patient, Eye, Total",[1]; safety population,2
same,"Adverse events by patient, GI, Total",[1]; safety population,21
same,"Adverse events by patient, General, Total",[1]; safety population,11
same,"Adverse events by patient, Heme, Total",[1]; safety population,1
same,"Adverse events by patient, Infection, Total",[1]; safety population,6
same,"Adverse events by patient, Injury, Total",[1]; safety population,1
same,"Adverse events by patient, Investigations, Total",[1]; safety population,7
same,"Adverse events by patient, Metabolism, Total",[1]; safety population,9
same,"Adverse events by patient, Neurologic, Total",[1]; safety population,12
same,"Adverse events by patient, Psych, Total",[1]; safety population,5
same,"Adverse events by patient, Renal, Total",[1]; safety population,2
same,"Adverse events by patient, Reproductive, Total",[1]; safety population,2
same,"Adverse events by patient, Respiratory, Total",[1]; safety population,3
same,"Adverse events by patient, Skin, Total",[1]; safety population,12
same,"Adverse events by patient, Vascular, Total",[1]; safety population,3
same,"Patients with no adverse event (None), %",[1]; safety population,58.6%
same,"Patients with no adverse event (None), number",[1]; safety population,65
same,"Total Patients with 1 or more AE, %",[1]; safety population,41.4%
same,"Total Patients with 1 or more AE, number",[1]; safety population,56
same,Clinical outcome Failure (number),G+ anaerobes,0
same,Clinical outcome Success (number),G+ anaerobes,0
same,Presumed Persistence (% of subjects),infecting pathogen,2.7%
same,Presumed Persistence (number of subjects),infecting pathogen,2
same,Persistence (% of subjects),infecting pathogen,2.7%
same,Persistence (number of subjects),infecting pathogen,2
same,Presumed Eradication (% of subjects),infecting pathogen,94.7%
same,Presumed Eradication (number of subjects),infecting pathogen,71
"CC(=O)NCC1CN(c2ccc(N3CCOCC3)c(F)c2)C(=O)O1 (stereo not drawn) [Linezolid, N-[[3-(3-fluoro-4-morpholinophenyl)-2-oxooxazolidin-5-yl]methyl]acetamide, reference compound]",Clinical outcome Failure (number),Mixed GPC,2
same,Clinical outcome Success (number),Mixed GPC,9
same,Clinical outcome Failure (number),MRSA,2
same,Clinical outcome Success (number),MRSA,30
same,clinical success rate against MRSA,MRSA,93%
same,Clinical outcome Failure (number),Mixed GPC/GNR,0
same,Clinical outcome Success (number),Mixed GPC/GNR,10
same,Clinical outcome Failure (number),Enterococcus,0
same,Clinical outcome Success (number),Enterococcus,3
same,Clinical outcome Failure (number),Viridans Strep,0
same,Clinical outcome Success (number),Viridans Strep,6
same,Clinical outcome Failure (number),B-Strep,2
same,Clinical outcome Success (number),B-Strep,0
same,clinical success rate against B. streptococci,B-Strep,0%
same,"Adverse events by patient, Cardiac, Drug Related",[1]; [2],3
same,"Adverse events by patient, Ear, Drug Related",[1]; [2],1
same,"Adverse events by patient, Eye, Drug Related",[1]; [2],1
same,"Adverse events by patient, GI, Drug Related",[1]; [2],13^b
same,"Adverse events by patient, General, Drug Related",[1]; [2],4
same,"Adverse events by patient, Heme, Drug Related",[1]; [2],0
same,"Adverse events by patient, Infection, Drug Related",[1]; [2],1
same,"Adverse events by patient, Injury, Drug Related",[1]; [2],1
same,"Adverse events by patient, Investigations, Drug Related",[1]; [2],8
same,"Adverse events by patient, Metabolism, Drug Related",[1]; [2],2
same,"Adverse events by patient, Musculoskeletal, Drug Related",[1]; [2],0
same,"Adverse events by patient, Neurologic, Drug Related",[1]; [2],7
same,"Adverse events by patient, Psych, Drug Related",[1]; [2],3
same,"Adverse events by patient, Renal, Drug Related",[1]; [2],0
same,"Adverse events by patient, Reproductive, Drug Related",[1]; [2],0
same,"Adverse events by patient, Respiratory, Drug Related",[1]; [2],0
same,"Adverse events by patient, Skin, Drug Related",[1]; [2],6^c
same,"Adverse events by patient, Vascular, Drug Related",[1]; [2],1
same,"Adverse events by patient, GI, Drug Related","[1]; probably or possibly drug-related by blinded evaluator, listed as linezolid",13
same,"Adverse events by patient, Cardiac, Total",[1]; safety population,4
same,"Adverse events by patient, Ear, Total",[1]; safety population,2
same,"Adverse events by patient, Eye, Total",[1]; safety population,1
same,"Adverse events by patient, GI, Total",[1]; safety population,21
same,"Adverse events by patient, General, Total",[1]; safety population,8
same,"Adverse events by patient, Heme, Total",[1]; safety population,2
same,"Adverse events by patient, Infection, Total",[1]; safety population,9
same,"Adverse events by patient, Injury, Total",[1]; safety population,1
same,"Adverse events by patient, Investigations, Total",[1]; safety population,11
same,"Adverse events by patient, Metabolism, Total",[1]; safety population,7
same,"Adverse events by patient, Musculoskeletal, Total",[1]; safety population,2
same,"Adverse events by patient, Neurologic, Total",[1]; safety population,15
same,"Adverse events by patient, Psych, Total",[1]; safety population,6
same,"Adverse events by patient, Renal, Total",[1]; safety population,2
same,"Adverse events by patient, Reproductive, Total",[1]; safety population,1
same,"Adverse events by patient, Respiratory, Total",[1]; safety population,2
same,"Adverse events by patient, Skin, Total",[1]; safety population,10
same,"Adverse events by patient, Vascular, Total",[1]; safety population,1
same,"Patients with no adverse event (None), %",[1]; safety population,49.1%
same,"Patients with no adverse event (None), number",[1]; safety population,53
same,"Total Patients with 1 or more AE, %",[1]; safety population,50.9%
same,"Total Patients with 1 or more AE, number",[1]; safety population,55
same,Clinical outcome Failure (number),G+ anaerobes,0
same,Clinical outcome Success (number),G+ anaerobes,3
same,Presumed Persistence (% of subjects),infecting pathogen,6.3%
same,Presumed Persistence (number of subjects),infecting pathogen,4
same,Persistence (% of subjects),infecting pathogen,1.6%
same,Persistence (number of subjects),infecting pathogen,1
same,Presumed Eradication (% of subjects),infecting pathogen,92.1%
same,Presumed Eradication (number of subjects),infecting pathogen,58
